Data reported in ChEMBL document CHEMBL5465560, “Selectivity Literature for EUbOPEN Chemogenomic Library” (2024).
Values belong to the compound of their own block, whether it stands above or below them.

How the values were obtained:
[1] = biological target: T1, cGMP-dependent protein kinase 2 (Homo sapiens) (UniProt Q13237); experiment: Selectivity interaction (Upstate Kinase Profiler service (Millipore)) EUB0000056c PRKG2; conditions: at 1 µM
T1 sequence (whole entry): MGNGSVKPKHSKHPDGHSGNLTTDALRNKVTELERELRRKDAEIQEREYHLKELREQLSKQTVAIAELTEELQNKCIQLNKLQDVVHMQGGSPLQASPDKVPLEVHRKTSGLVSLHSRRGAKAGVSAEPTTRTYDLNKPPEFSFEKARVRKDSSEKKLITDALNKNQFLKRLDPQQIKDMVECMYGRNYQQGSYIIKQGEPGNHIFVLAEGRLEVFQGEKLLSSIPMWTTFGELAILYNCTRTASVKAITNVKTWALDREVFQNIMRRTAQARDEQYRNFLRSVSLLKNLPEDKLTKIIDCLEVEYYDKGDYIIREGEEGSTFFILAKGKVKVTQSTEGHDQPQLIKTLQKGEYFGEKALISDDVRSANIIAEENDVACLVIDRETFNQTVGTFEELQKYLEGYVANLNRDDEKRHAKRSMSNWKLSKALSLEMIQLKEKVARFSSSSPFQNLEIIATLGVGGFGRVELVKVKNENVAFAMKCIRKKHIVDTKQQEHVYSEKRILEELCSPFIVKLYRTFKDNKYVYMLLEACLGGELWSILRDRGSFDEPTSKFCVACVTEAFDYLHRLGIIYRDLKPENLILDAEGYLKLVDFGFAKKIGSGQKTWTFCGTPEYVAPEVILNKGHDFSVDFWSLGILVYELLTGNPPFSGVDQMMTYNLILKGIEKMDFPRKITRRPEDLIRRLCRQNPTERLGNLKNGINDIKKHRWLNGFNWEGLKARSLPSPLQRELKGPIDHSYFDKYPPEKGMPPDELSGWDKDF

[2] = biological target: T2, Protein kinase C iota type (Homo sapiens) (UniProt P41743); experiment: Selectivity interaction (Kinase panel (Invitrogen)) EUB0000639a PRKCI; conditions: at 200 nM
T2 sequence (whole entry): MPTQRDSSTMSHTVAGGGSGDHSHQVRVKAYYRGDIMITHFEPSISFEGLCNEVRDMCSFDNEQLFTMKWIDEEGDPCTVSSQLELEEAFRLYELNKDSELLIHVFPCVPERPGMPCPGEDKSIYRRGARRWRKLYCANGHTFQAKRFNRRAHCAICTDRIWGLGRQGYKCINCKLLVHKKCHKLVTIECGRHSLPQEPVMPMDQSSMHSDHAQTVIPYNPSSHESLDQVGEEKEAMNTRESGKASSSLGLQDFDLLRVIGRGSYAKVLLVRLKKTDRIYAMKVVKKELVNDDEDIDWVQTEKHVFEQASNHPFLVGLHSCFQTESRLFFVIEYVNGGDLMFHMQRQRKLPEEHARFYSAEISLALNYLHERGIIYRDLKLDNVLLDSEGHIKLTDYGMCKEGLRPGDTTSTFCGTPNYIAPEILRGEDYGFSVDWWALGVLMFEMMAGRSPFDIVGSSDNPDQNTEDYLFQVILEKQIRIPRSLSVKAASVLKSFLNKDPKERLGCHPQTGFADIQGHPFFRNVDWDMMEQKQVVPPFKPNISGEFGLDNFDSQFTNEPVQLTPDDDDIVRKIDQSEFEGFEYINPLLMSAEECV

[3] = tested on: Epidermal growth factor receptor (Homo sapiens), P00533 [UNDEFINED MUTATION]; experiment: Selectivity interaction (ProQinase) EUB0000171b EGFR; conditions: at 1 µM
[4] = biological target: T3, Inhibitor of nuclear factor kappa-B kinase subunit beta (Homo sapiens) (UniProt O14920); experiment: Selectivity interaction (Ambit KINOMEscan and KiNATiv profiling in Jurkat cells) EUB0000090b IKBKB; type: cell-based; conditions: at 1 µM
T3 sequence (whole entry): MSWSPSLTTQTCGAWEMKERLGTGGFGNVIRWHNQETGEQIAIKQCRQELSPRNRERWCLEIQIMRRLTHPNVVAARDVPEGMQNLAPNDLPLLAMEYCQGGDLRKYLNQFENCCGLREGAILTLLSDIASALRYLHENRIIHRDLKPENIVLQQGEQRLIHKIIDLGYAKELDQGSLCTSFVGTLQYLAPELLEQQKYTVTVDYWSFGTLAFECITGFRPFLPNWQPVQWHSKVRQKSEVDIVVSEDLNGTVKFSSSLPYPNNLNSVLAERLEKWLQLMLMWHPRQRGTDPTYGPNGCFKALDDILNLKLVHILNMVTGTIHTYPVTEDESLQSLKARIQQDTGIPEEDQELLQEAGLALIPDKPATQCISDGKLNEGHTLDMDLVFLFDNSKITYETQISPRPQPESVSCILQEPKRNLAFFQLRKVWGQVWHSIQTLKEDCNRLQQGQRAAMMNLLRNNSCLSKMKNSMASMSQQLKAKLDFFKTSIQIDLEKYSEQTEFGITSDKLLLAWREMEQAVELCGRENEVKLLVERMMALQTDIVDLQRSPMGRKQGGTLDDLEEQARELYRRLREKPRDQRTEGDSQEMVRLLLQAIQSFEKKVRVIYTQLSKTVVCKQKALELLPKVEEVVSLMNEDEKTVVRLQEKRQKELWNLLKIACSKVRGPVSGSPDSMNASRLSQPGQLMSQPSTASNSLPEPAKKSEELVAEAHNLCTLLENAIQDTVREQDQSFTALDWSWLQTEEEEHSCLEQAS

[5] = biological target: Platelet-derived growth factor receptor beta (Homo sapiens, UniProt P09619); experiment: Selectivity interaction (KinomeScan (DiscoverX)) EUB0000655a PDGFRB; conditions: at 10 µM
[6] = biological target: T4, Serine/threonine-protein kinase DCLK3 (Homo sapiens) (UniProt Q9C098); conditions: at 10 µM
T4 sequence (whole entry): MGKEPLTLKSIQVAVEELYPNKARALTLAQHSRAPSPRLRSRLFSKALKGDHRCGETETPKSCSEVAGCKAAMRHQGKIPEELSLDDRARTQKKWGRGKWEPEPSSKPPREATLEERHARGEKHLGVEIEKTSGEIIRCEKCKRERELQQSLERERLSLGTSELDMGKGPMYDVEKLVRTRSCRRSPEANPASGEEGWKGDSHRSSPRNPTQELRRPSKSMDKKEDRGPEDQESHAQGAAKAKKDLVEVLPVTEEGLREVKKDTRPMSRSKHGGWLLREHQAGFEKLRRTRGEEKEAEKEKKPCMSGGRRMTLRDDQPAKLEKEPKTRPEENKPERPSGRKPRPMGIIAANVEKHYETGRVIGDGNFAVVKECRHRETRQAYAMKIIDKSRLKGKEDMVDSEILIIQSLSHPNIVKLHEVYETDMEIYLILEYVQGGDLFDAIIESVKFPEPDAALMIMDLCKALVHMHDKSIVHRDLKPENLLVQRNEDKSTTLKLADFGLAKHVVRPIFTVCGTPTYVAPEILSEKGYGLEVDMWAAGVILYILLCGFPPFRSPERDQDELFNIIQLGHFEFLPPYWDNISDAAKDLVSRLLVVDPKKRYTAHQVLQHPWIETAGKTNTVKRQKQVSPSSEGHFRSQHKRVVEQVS

Sequence of Platelet-derived growth factor receptor beta (P09619 whole entry): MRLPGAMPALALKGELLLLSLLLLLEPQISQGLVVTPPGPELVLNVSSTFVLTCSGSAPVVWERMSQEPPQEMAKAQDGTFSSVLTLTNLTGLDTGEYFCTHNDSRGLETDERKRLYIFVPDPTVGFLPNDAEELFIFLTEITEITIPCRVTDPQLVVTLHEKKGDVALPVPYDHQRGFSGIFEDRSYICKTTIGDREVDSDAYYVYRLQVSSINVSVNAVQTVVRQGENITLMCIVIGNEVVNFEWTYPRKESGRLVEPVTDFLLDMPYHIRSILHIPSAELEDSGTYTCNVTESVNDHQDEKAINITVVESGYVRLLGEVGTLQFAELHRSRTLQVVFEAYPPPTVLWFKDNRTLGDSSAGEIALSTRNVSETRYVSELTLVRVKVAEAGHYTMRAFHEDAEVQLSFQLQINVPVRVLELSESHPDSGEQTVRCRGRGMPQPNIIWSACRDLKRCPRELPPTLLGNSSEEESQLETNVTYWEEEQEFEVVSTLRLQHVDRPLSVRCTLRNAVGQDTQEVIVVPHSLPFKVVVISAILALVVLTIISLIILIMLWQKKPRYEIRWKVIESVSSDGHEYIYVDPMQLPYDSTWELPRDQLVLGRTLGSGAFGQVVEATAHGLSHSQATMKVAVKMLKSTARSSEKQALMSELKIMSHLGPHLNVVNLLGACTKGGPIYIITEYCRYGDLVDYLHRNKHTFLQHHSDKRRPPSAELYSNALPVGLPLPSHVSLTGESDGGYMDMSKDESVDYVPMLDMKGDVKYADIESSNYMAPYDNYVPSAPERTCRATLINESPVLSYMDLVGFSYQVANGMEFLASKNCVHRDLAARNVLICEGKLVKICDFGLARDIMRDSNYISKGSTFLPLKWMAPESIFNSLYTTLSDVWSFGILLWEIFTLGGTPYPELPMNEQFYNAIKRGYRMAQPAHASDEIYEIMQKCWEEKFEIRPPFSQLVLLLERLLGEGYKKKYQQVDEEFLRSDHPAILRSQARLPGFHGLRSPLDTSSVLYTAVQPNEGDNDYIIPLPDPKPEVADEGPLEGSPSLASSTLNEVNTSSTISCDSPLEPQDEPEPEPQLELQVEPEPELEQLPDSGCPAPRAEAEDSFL
Sequence of Epidermal growth factor receptor (Homo sapiens), P00533 [UNDEFINED MUTATION] (P00533 whole entry, looked up, change not shown): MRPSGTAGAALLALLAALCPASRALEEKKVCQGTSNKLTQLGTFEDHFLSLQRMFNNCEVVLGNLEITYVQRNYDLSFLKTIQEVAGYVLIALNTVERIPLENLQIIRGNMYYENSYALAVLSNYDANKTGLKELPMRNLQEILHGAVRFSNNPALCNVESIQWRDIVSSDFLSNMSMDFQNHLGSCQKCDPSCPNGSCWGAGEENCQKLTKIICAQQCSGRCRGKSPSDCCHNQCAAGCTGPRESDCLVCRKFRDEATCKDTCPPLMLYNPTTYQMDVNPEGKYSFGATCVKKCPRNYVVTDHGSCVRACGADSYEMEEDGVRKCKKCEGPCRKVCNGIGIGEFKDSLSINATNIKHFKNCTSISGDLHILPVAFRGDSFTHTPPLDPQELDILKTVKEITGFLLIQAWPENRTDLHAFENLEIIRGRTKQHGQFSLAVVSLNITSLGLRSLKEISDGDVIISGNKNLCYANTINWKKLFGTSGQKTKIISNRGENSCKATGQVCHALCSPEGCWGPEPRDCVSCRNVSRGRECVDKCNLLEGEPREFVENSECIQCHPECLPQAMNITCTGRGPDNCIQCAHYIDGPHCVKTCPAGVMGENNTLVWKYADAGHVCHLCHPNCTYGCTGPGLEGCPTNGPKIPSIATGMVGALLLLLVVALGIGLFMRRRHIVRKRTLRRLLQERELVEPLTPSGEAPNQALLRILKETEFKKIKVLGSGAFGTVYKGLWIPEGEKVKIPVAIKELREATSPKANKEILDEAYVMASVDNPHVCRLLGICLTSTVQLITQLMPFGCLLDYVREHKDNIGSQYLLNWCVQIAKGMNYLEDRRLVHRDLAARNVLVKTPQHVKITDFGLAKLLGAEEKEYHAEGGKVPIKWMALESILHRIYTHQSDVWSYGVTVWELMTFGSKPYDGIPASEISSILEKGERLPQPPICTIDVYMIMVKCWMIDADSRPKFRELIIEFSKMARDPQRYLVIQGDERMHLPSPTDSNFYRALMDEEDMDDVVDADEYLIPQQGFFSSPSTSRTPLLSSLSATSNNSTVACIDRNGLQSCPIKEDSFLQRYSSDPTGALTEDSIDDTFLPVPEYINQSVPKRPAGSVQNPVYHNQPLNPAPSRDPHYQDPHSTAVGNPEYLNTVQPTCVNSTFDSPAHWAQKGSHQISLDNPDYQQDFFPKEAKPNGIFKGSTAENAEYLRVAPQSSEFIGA

SMILES: CN(C)C/C=C/C(=O)Nc1ccc(C(=O)N2CCCC(Nc3ncc(Cl)c(-c4c[nH]c5ccccc45)n3)C2)cc1 (stereo unspecified)
% of control [4]: 73%

SMILES: CN(C)CCOc1ccc(-c2nc(-c3ccncc3)c(-c3ccc4c(c3)CC/C4=N\O)[nH]2)cc1
% of control [5]: 63%

SMILES: Cc1cc([C@@H](C)Nc2ccccc2C(=O)O)c2nc(N3CCOCC3)cc(=O)n2c1 [AZD-6482]
% of control [6]: 85%

The next lines start with the values.

% of inhibition [1]: -6%
SMILES: Cc1ccc(-c2ccc3c(ccc4sc5c(c43)NC[C@@H](C)NC5=O)n2)cn1

% of inhibition [2]: 5.1%
SMILES: CC[C@@H]1[C@H](F)C(=O)N[C@@H]1COc1nccc2cc(C(N)=O)c(OC)cc12 [ZIMLOVISERTIB]

% of control [3]: 85%
SMILES: C=CC(=O)Nc1cccc(C(=O)Nc2ccc(Nc3cc(-c4[nH]c(SC)nc4C)ccn3)cc2)c1
